This is an account of results in publication PMC12518634, “The noncanonical function of liver-type phosphofructokinase potentiates the efficacy of HDAC inhibitors in cancer” (Signal Transduction and Targeted Therapy, 2025).

Assay type in all cases: cell-based, human
Assay [1] concerns TFK1 cells. Nature of the assay: Cell viability assay (CellTiter-Glo, 72 h), GI50. Particulars: TFK1 sgPFKL-1 and sgPFKL-2 versus sgNC, Supplementary Fig. 2d. Here is the method: Cell viability was assessed using the CellTiter-Glo luminescent cell viability assay (Vazyme, DD1101) following the manufacturer’s instructions. Briefly, 5000 cells per well were seeded into a 96-well white bottom permeable plate. Different concentrations of drugs were added to each well. After 72 h of treatment, a mixture of CellTier reagent and serum-free culture medium was prepared at a 1:1 ratio, and 100 μL of the mixture was added to each well. After incubation at 37 °C for 15 min, the luminescence was measured using a microplate reader (Synergy H1, Biotek). All the experiments were conducted in triplicate. Cell viability (relative luminescence) was defined as the luminescence of the drug treatment relative to that of the vehicle control.
Background: In ATP-based viability assays light output follows the ATP content of the culture.

In assay [2] the test system is 783C-6. In words: High-throughput drug screen, CellTiter-Glo viability, 72 h. On the set-up: AUC: scale not given here. To be noted: for AUC: area under the dose-response curve; for EC50: 72 h, read-out: EC50. The gist of the method:
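Cholangiocarcinoma cells were seeded at 3000/well in 384-well plates and dosed after 24 h. Drugs were tested at 10, 1, 0.1, 0.01 and 0.001 μM in duplicate for 72 h, with viability read by CellTiter-Glo luminescence.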

The test system of assay [3] is 1405R3. Described as above. To be noted: 1405R3 DSRT analysis; for AUC: area under the dose-response curve; for MIN: lower asymptote of fitted dose-response curve; for EC50: fitted dose-response curve, Min.Conc.tested 1, Max.Conc.tested 10000, 72 h, read-out: EC50; for SLOPE: slope of fitted dose-response curve. The arrangement: AUC: scale not given here. The gist of the method:
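Responses are drug sensitivity scores (efficacy cutoff ≥10), fitted from CellTiter-Glo luminescence. Each drug was given at five concentrations (10 to 0.001 μM, tenfold steps) in duplicate for 72 h. Cells were plated at 3000/well 24 h before dosing.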

The mark [4] stands for this setting: 783C-6 DSRT analysis, DSS calculated from the dose-response curve.
Where [5] appears, read: 783C-6 DSRT analysis, MIN of the fitted dose-response curve.
Setting [6] is: 783C-6 DSRT analysis, slope of the fitted dose-response curve.
Where [7] appears, read: 783C-6 cells, DSS of DSRT analysis.
Setting [8] is: 783C-6 cells, minimum of dose-response curve.
The mark [9] stands for this setting: Homo sapiens, CellTiter-Glo viability, GI50.
Where [10] appears, read: 783C-6 cells, slope of fitted dose-response curve.

SMILES strings stand for the structures. Where two headings read alike, the source gives them in different places.

With `C[C@@H]1NC(=O)[C@H]2CCCN2C(=O)[C@H](CCCCCC(=O)[C@@H]2CO2)NC(=O)[C@@H](C)NC1=O` [HC-Toxin], the “effect of PFKL knockout on drug efficacy (cell viability)” value in assay [1] is given as “significantly inhibited drug efficacy”.
Still for that read-out and setting: for `CCC(=O)CCCCC[C@@H]1NC(=O)[C@H]2CCCCN2C(=O)[C@H]([C@@H](C)CC)NC(=O)[C@H](Cc2cn(OC)c3ccccc23)NC1=O` [apicidin] the value was “significantly inhibited drug efficacy”.
As a reminder, the EC50 is the midpoint of the concentration-response curve. Regarding `O=C(/C=C/c1cccc(S(=O)(=O)Nc2ccccc2)c1)NO` [belinostat, reference compound], the “effect of PFKL knockout on drug efficacy (cell viability)” value in assay [1] was “significantly inhibited drug efficacy”. Also, the DSS in assay [2] (setting [4]) is recorded as 19; in assay [3] (DSS) it was 12.9. Further, the MIN in assay [2] (setting [5]) is listed as 0.2; in assay [3], 0. Also, the figures for the AUC in assay [2] (783C-6 DSRT analysis) and in assay [3] were 173.8 and 121.5, respectively. In addition, the EC50 in assay [2] (Homo sapiens) came out at 195 nM; in assay [3] (Homo sapiens, CellTiter-Glo) it was 684 nM.
For the molecule `Nc1ccccc1NC(=O)CCCCCCC(=O)Nc1ccccc1` [BML-210], the DSS in assay [2] (setting [4]) and in assay [3] (DSS) was 0 each time. The MIN in assay [2] (setting [5]) amounted to 97; in assay [3] it was 96.1. The values for the AUC in assay [2] (783C-6 DSRT analysis) and in assay [3] were 3.9 and 5.7, respectively. Besides, the results for the SLOPE in assay [2] (setting [6]) and in assay [3] were -2.5 and -0.1, respectively.
For `Cc1ccc(F)c(NC(=O)Nc2ccc(-c3cccc4[nH]nc(N)c34)cc2)c1` [Linifanib], the DSS in assay [2] (setting [4]) is given as 3.9; in assay [3] (DSS), 0. Also, the MIN in assay [2] (setting [5]) worked out at 68.4; in assay [3] it was 97.4. Moreover, the figures for the AUC in assay [2] (783C-6 DSRT analysis) and in assay [3] were 53 and 3.9, respectively. Moreover, the EC50 in assay [2] (Homo sapiens) is 255 nM.
As for `Nc1cc(F)ccc1NC(=O)c1ccc(CNC(=O)/C=C/c2cccnc2)cc1` [Tucidinostat], the DSS in assay [2] (setting [7]) is on record as 6.5; in assay [3] (drug sensitivity score), 7. For the same molecule, the AUC is reported as 59.3 in assay [2] (783C-6 cells) and 73.3 in assay [3]. Besides, the results for the MIN in assay [2] (setting [8]) and in assay [3] were 25.1 and 44, respectively. The EC50 was determined as 1660 nM in assay [2] (Homo sapiens) and 607 nM in assay [3] (setting [9]).
As to `COc1cc2nc(N3CCCN(C)CC3)nc(NC3CCN(Cc4ccccc4)CC3)c2cc1OC` [BIX 01294], the figures for the DSS in assay [2] (setting [4]) and in assay [3] (DSS) were 4.7 and 4.6, respectively. For the same molecule, the results for the MIN in assay [2] (setting [5]) and in assay [3] were 28 and 12.3, respectively. Further, the values for the AUC in assay [2] (783C-6 DSRT analysis) and in assay [3] were 42.4 and 42.6, respectively. For the same molecule, the EC50 in assay [2] (Homo sapiens) came out at 2610 nM; in assay [3] (Homo sapiens, CellTiter-Glo), 3350 nM.
`C[C@@H]1COC(Nc2ccc3ncnc(Nc4ccc(OCc5nccs5)c(Cl)c4)c3c2)=N1` [Varlitinib]: the values for the DSS in assay [2] (setting [7]) and in assay [3] (drug sensitivity score) were 1.5 and 0, respectively. Besides, the AUC in assay [2] (783C-6 cells) came out at 22.8; in assay [3], 11.5. The MIN in assay [2] (setting [8]) is given as 79.7; in assay [3] it was 91.8.
Consider `O=C(O)c1ccc(Nc2ncc3c(n2)-c2ccc(Cl)cc2C(c2c(F)cccc2F)=NC3)cc1` [MLN8054], for which the DSS in assay [2] (setting [4]) and in assay [3] (DSS) was 0 throughout. For the same molecule, the MIN stood at 70.8 in assay [2] (setting [5]) and 90.2 in assay [3]. Besides, the AUC stood at 8.8 in assay [2] (783C-6 DSRT analysis) and 6.8 in assay [3].
Consider `COc1cc(/C=C/C(=O)CC(=O)/C=C/c2ccc(O)c(OC)c2)ccc1O` [Curcumin], for which the DSS in assay [2] (setting [4]) and in assay [3] (DSS) was 0 in each case. Further, the values for the MIN in assay [2] (setting [5]) and in assay [3] were 96.8 and 97.3, respectively. The AUC in assay [2] (783C-6 DSRT analysis) is listed as 2.1; in assay [3], 1.
`Cl.Cn1cc(C(=O)Nc2ccc([C@@H]3C[C@H]3NCC3CC3)cc2)cn1` [T-3775440 HCl]: the DSS in assay [2] (setting [7]) and in assay [3] (drug sensitivity score) was 0 throughout. Moreover, the AUC in assay [2] (783C-6 cells) was 15; in assay [3], 0.3. Also, the values for the MIN in assay [2] (setting [8]) and in assay [3] were 90.4 and 97.3, respectively. Also, the results for the SLOPE in assay [2] (setting [10]) and in assay [3] were -0.1 and -2.5, respectively.
On to `Cn1c(/C=C/C(=O)NO)ccc1/C=C/C(=O)c1cccc(F)c1` [MC1568], for which the DSS in assay [2] (setting [4]) and in assay [3] (DSS) was 0 in each case. Also, the results for the MIN in assay [2] (setting [5]) and in assay [3] were 98.4 and 94.6, respectively. Besides, the AUC is 0.2 in assay [2] (783C-6 DSRT analysis) and 2.6 in assay [3]. In addition, the SLOPE in assay [2] (setting [6]) was -2.5; in assay [3], -0.6.
Turning to `CC(C)(CNC(=O)c1cccc(-c2noc(C(F)(F)F)n2)c1)c1coc(-c2ccccc2)n1` [TMP195], the DSS in assay [2] (setting [7]) and in assay [3] (drug sensitivity score) was 0 throughout. For the same molecule, the AUC is given as 1.4 in assay [2] (783C-6 cells) and 1.1 in assay [3]. The results for the MIN in assay [2] (setting [8]) and in assay [3] were 96 and 97.2, respectively. Moreover, the SLOPE in assay [2] (setting [10]) is -0.9; in assay [3] it was -0.8.
As to `O=S(=O)(Cl)c1ccc(-c2ccccc2)cc1` [Biphenyl-4-sulfonyl chloride], the DSS in assay [2] (setting [4]) and in assay [3] (DSS) was 0 in each case. For the same molecule, the MIN in assay [2] (setting [5]) stood at 88.2; in assay [3], 94. Also, the values for the AUC in assay [2] (783C-6 DSRT analysis) and in assay [3] were 18.3 and 6.3, respectively. Further, the SLOPE in assay [2] (setting [6]) is reported as -0.1; in assay [3] it was -0.2.
With `Cc1cc(C)cc(C(=O)NOCCCCCC(=O)NO)c1` [LMK-235], the EC50 in assay [2] (783C-6 DSRT analysis, CellTiter-Glo viability, fitted dose-response curve, Min.Conc.tested 1, Max.Conc.tested 10000) turned out to be 1330 nM; in assay [3] (CellTiter-Glo), 927 nM. Further, the figures for the DSS in assay [2] (setting [4]) and in assay [3] (DSS) were 9.8 and 11.6, respectively. Besides, the MIN in assay [2] (setting [5]) stood at 3.5; in assay [3] it was 2. For the same molecule, the AUC in assay [2] (783C-6 DSRT analysis) came out at 84.5; in assay [3], 101.6. The SLOPE was -2.5 in assay [2] (setting [6]) and -1.7 in assay [3].
Regarding `CCC(CC)(NC(=O)C(C)C)C(=O)N[C@@H](CCCN=C(N)N)C(=O)NC1(C(=O)NC(c2ccc(F)cc2)c2ccc(F)cc2)CCCC1` [MM-102], the DSS in assay [2] (setting [4]) and in assay [3] (DSS) was 0 each time. The MIN in assay [2] (setting [5]) and in assay [3] was 88.1 throughout. In addition, the AUC in assay [2] (783C-6 DSRT analysis) and in assay [3] was 18.6 throughout. Further, the SLOPE in assay [2] (setting [6]) and in assay [3] was -0.1 in each case.
Take `Cn1c(CCCCCCC(=O)NO)nc2cc(N(CCCl)CCCl)ccc21` [Tinostamustine]: the DSS in assay [2] (setting [7]) is 7.1; in assay [3] (drug sensitivity score), 6.3. Further, the AUC in assay [2] (783C-6 cells) came out at 62.6; in assay [3], 56. Moreover, the MIN in assay [2] (setting [8]) was determined as 3.7; in assay [3], 10. Moreover, the EC50 was found to be 2260 nM in assay [2] (Homo sapiens) and 2420 nM in assay [3] (setting [9]).
Turning to `O=C1NC(=O)/C(=C/c2cccc(C(F)(F)F)c2)S1` [SMI-4a], the DSS in assay [2] (setting [7]) and in assay [3] (drug sensitivity score) was 0 in each case. In addition, the results for the AUC in assay [2] (783C-6 cells) and in assay [3] were 2.1 and 0.1, respectively. Also, the MIN is reported as 96.8 in assay [2] (setting [8]) and 99.6 in assay [3]. Besides, the SLOPE is given as -2.5 in assay [2] (setting [10]) and -1.3 in assay [3].
Regarding `O=C(NNS(=O)(=O)c1ccccc1F)c1cc(F)cc(-c2ccccn2)c1` [WM-1119], the DSS in assay [2] (setting [7]) and in assay [3] (drug sensitivity score) was 0 each time. Moreover, the AUC is listed as 7.3 in assay [2] (783C-6 cells) and 51.4 in assay [3]. In addition, the values for the MIN in assay [2] (setting [8]) and in assay [3] were 75.9 and 66.9, respectively.
Take `CCCCCCCc1ccc(CCc2cccc(O)c2C(=O)O)cc1` [MG149]: the DSS in assay [2] (setting [4]) and in assay [3] (DSS) was 0 in each case. For the same molecule, the figures for the MIN in assay [2] (setting [5]) and in assay [3] were 87.6 and 85.7, respectively. Further, the AUC came out at 3.7 in assay [2] (783C-6 DSRT analysis) and 18.5 in assay [3]. Moreover, the SLOPE in assay [2] (setting [6]) was -1; in assay [3], -0.2.
`CNC(=O)c1ccccc1Sc1ccc2c(/C=C/c3ccccn3)n[nH]c2c1` [Axitinib]: the DSS in assay [2] (setting [4]) and in assay [3] (DSS) was 0 in each case. The MIN in assay [2] (setting [5]) is recorded as 90.6; in assay [3] it was 91.1. Also, the AUC in assay [2] (783C-6 DSRT analysis) was 2.8; in assay [3], 6.8.
`CCN1C(=O)N(c2c(F)c(OC)cc(OC)c2F)Cc2cnc3[nH]c(CN4CCOCC4)cc3c21` [Pemigatinib]: the figures for the DSS in assay [2] (setting [7]) and in assay [3] (drug sensitivity score) were 4.8 and 0, respectively. The AUC in assay [2] (783C-6 cells) was found to be 62.9; in assay [3], 7. Moreover, the MIN in assay [2] (setting [8]) was 78.8; in assay [3], 76.8.
